How the values were obtained:
Format in all cases: biochemical
Lyn = target: T1, Lyn (Homo sapiens, UniProt P07948); test: Kinase inhibition assay (33P transfer), Lyn; conditions: Table 6, Lyn-1 kinase inhibition class
T1 construct: Kinases are expressed as either kinase domains or full length constructs; made in house
How it was run: (§1)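 Kinase domains or full-length enzymes, GST- or polyHis-tagged, were expressed in E. coli or baculovirus High Five cells and affinity-purified. Transfer of 33PO4 from ATP onto plate-bound poly(Glu,Tyr) 4:1 or poly(Arg,Ser) 3:1 was counted by liquid scintillation after a 0.5% phosphoric acid wash. IC50 = concentration halving incorporation.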

Hck-1 = target: T2, Hck-1 (Homo sapiens, UniProt P08631); test: Kinase inhibition assay (33P transfer), Hck; conditions: Table 6, Hck-1 kinase inhibition class
T2 construct: Kinases are expressed as either kinase domains or full length constructs; made in house

Flt-1 = target: T3, Flt-1 (Homo sapiens, UniProt P17948); test: Kinase inhibition assay (33P transfer), Flt-1
T3 construct: Kinases are expressed as either kinase domains or full length constructs; made in house
How it was run: as §1

ErbB4 = target: T4, ErbB4 (Homo sapiens, UniProt Q15303); test: Kinase inhibition assay (33P transfer), ErbB4; conditions: read-out: ErbB4-1
T4 construct: Kinases are expressed as either kinase domains or full length constructs; made in house

Kdr = target: T5, Kdr (Homo sapiens, UniProt P35968); test: Kinase inhibition assay (33P transfer), Kdr; conditions: Table 3; read-out: KDR-1
T5 construct: Kinases are expressed as either kinase domains or full length constructs; made in house
How it was run: (§2)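 Recombinant kinase-domain or full-length fusion proteins (GST or His tag) served as enzyme. Substrate poly(Glu,Tyr) 4:1 or poly(Arg,Ser) 3:1 was bound to the plate; transferred 33P was read by liquid scintillation following acid washing.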

AKT = target: T6, AKT (Homo sapiens, UniProt Q9Y243); test: Kinase inhibition assay (33P transfer), AKT; conditions: Table 2, kinase inhibition class; read-out: AKT3-1
T6 construct: Kinases are expressed as either kinase domains or full length constructs; made in house
How it was run: as §2

Fyn = target: T7, Fyn (Homo sapiens, UniProt P06241); test: Kinase inhibition assay (33P transfer), Fyn; conditions: read-out: Fyn-1
T7 construct: Kinases are expressed as either kinase domains or full length constructs; made in house
How it was run: as §1

FGFR1 = target: T8, FGFR1 (Homo sapiens, UniProt P11362); test: Kinase inhibition assay (33P transfer), FGFR1; conditions: read-out: FGFR1-1
T8 construct: Kinases are expressed as either kinase domains or full length constructs; made in house

PDGFRB = target: T9, PDGFRB (Homo sapiens, UniProt P09619); test: Kinase inhibition assay (33P transfer), PDGFRB; conditions: read-out: PDGFRB-1
T9 construct: Kinases are expressed as either kinase domains or full length constructs; made in house

Itk = target: T10, Itk (Homo sapiens, UniProt Q08881); test: Kinase inhibition assay (33P transfer), Itk; conditions: Table 3; read-out: Itk-1
T10 construct: Kinases are expressed as either kinase domains or full length constructs; made in house
T10 sequence (Q08881 1-620): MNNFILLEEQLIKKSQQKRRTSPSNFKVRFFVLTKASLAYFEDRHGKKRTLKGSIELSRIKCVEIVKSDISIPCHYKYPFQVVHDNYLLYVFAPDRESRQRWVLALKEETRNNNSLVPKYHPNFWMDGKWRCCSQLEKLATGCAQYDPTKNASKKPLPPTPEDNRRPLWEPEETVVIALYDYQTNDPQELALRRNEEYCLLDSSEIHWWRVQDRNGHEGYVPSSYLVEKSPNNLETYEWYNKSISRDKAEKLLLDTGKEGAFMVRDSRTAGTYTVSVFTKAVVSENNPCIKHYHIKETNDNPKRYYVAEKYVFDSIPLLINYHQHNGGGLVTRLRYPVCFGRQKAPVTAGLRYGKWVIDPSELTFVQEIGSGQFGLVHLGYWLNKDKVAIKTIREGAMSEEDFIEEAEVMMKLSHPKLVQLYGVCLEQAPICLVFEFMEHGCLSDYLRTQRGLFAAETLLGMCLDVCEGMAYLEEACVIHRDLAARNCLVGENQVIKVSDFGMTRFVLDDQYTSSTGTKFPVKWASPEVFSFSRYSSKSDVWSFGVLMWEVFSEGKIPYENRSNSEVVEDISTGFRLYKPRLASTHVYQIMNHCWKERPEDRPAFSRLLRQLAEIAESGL
How it was run: as §1

IGFR-1 = target: T11, IGFR-1 (Homo sapiens, UniProt P08069); test: Kinase inhibition assay (33P transfer), IGFR-1; conditions: Table 2, kinase inhibition class
T11 construct: Kinases are expressed as either kinase domains or full length constructs; made in house

Lck = target: T12, Lck (Homo sapiens, UniProt P06239); test: Kinase inhibition assay (33P transfer), Lck; conditions: Table 3; read-out: Lck-1
T12 construct: Kinases are expressed as either kinase domains or full length constructs; made in house
How it was run: as §2

Zap-70 = target: T13, Zap-70 (Homo sapiens, UniProt P43403); test: Kinase inhibition assay (33P transfer), Zap-70; conditions: Table 3; read-out: Zap-1
T13 construct: Kinases are expressed as either kinase domains or full length constructs; made in house
T13 sequence (P43403 1-619): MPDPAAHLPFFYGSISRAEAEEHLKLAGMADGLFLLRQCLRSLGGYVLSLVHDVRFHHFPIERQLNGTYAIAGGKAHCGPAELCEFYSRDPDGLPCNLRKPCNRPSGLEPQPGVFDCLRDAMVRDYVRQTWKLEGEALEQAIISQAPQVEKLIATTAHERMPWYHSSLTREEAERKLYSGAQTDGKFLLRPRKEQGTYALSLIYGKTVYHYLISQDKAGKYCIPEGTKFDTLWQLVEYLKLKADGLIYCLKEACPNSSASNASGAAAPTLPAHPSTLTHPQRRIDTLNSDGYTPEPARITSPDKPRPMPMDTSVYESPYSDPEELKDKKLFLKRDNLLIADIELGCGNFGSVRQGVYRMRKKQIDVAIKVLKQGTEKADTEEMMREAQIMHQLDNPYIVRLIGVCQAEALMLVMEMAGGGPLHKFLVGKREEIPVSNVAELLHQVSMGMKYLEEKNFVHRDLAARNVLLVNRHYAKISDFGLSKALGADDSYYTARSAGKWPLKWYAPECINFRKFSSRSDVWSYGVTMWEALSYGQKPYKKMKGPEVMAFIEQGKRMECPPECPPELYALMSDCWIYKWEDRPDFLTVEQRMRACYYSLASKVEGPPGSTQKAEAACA
How it was run: as §2

c-Met = target: T14, c-Met (Homo sapiens, UniProt P08581); test: Kinase inhibition assay (33P transfer), c-Met; conditions: Table 2, kinase inhibition class; read-out: Met-1
T14 construct: Kinases are expressed as either kinase domains or full length constructs; made in house
How it was run: as §1

T14 sequence (P08581 25-1390): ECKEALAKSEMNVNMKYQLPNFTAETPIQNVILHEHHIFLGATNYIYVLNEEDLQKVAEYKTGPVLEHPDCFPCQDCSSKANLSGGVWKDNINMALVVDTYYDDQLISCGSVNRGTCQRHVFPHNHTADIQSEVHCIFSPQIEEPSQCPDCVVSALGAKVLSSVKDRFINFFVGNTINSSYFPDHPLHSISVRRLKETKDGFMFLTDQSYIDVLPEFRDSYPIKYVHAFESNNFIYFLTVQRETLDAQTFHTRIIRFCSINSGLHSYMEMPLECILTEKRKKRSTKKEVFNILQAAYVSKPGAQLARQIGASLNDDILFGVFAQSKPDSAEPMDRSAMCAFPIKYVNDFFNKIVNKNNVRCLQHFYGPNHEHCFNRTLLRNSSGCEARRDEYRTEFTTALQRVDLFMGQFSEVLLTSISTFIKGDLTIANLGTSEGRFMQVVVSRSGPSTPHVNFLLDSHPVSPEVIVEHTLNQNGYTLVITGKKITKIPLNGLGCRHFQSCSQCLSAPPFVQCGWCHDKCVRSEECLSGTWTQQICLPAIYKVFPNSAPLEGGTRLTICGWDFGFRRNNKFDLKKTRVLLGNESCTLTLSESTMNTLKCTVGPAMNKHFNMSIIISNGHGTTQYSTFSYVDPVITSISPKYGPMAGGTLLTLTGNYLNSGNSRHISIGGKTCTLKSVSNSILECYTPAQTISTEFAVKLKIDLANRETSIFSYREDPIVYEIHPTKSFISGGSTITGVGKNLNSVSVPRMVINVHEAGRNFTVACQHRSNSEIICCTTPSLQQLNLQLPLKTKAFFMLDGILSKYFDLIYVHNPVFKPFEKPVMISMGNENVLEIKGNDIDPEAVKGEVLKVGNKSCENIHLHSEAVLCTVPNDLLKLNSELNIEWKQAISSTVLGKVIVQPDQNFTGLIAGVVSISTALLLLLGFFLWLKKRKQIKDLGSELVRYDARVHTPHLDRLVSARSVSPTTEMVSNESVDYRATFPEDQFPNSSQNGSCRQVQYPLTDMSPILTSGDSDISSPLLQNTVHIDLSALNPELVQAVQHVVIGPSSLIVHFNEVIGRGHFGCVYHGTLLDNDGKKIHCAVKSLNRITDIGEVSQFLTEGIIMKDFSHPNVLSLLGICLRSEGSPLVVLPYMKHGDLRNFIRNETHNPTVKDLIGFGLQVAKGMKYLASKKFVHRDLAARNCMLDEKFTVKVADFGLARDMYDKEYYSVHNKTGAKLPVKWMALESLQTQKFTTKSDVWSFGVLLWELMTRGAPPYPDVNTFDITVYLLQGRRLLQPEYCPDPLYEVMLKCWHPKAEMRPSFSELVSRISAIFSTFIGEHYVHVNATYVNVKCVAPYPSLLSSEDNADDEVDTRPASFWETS
T5 sequence (P35968 20-1356, species assumed): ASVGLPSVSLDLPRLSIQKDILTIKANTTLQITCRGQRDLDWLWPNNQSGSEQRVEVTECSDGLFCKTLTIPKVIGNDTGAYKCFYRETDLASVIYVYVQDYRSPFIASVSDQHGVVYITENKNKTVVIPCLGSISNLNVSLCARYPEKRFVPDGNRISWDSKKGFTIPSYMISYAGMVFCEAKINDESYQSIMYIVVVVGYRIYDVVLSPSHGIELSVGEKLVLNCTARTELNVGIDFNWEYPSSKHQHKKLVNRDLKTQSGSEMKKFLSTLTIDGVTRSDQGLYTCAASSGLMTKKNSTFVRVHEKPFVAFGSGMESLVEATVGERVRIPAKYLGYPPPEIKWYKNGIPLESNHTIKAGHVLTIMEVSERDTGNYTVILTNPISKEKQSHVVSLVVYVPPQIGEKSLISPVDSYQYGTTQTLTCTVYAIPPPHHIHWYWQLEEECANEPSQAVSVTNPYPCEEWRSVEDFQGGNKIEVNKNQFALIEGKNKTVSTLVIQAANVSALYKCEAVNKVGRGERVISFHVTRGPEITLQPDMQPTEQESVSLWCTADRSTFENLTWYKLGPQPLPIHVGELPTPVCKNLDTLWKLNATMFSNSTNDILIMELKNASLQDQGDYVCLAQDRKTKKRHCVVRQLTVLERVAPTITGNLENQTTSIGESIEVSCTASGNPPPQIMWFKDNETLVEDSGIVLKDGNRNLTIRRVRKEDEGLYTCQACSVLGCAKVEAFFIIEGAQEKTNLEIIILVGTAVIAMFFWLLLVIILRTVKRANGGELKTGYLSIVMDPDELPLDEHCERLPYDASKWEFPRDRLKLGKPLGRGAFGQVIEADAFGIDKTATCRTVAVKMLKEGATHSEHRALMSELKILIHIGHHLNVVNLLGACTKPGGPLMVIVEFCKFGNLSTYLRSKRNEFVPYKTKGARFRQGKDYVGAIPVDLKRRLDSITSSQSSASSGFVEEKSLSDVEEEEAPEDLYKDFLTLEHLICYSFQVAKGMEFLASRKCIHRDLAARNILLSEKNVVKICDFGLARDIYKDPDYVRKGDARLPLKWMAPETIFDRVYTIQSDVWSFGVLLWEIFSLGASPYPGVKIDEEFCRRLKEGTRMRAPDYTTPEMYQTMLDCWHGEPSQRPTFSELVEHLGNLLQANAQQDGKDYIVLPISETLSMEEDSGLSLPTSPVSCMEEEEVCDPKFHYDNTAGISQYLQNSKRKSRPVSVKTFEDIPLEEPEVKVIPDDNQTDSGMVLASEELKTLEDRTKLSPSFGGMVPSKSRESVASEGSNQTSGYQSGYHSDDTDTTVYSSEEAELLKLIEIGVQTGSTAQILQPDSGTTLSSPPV
T6 sequence (Q9Y243 whole entry, the tested form may be a part): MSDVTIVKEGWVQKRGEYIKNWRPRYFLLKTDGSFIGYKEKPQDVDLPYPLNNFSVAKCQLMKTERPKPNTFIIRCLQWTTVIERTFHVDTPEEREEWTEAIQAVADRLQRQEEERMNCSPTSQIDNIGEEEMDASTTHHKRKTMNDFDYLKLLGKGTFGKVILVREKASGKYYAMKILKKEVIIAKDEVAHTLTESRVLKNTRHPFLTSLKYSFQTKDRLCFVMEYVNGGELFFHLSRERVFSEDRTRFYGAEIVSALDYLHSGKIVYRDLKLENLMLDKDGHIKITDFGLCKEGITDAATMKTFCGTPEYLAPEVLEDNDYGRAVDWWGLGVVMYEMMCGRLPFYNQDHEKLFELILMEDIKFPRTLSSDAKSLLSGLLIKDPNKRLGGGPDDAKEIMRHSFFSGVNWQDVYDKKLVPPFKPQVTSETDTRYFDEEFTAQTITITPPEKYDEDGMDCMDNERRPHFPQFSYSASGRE
T11 sequence (P08069 31-1367): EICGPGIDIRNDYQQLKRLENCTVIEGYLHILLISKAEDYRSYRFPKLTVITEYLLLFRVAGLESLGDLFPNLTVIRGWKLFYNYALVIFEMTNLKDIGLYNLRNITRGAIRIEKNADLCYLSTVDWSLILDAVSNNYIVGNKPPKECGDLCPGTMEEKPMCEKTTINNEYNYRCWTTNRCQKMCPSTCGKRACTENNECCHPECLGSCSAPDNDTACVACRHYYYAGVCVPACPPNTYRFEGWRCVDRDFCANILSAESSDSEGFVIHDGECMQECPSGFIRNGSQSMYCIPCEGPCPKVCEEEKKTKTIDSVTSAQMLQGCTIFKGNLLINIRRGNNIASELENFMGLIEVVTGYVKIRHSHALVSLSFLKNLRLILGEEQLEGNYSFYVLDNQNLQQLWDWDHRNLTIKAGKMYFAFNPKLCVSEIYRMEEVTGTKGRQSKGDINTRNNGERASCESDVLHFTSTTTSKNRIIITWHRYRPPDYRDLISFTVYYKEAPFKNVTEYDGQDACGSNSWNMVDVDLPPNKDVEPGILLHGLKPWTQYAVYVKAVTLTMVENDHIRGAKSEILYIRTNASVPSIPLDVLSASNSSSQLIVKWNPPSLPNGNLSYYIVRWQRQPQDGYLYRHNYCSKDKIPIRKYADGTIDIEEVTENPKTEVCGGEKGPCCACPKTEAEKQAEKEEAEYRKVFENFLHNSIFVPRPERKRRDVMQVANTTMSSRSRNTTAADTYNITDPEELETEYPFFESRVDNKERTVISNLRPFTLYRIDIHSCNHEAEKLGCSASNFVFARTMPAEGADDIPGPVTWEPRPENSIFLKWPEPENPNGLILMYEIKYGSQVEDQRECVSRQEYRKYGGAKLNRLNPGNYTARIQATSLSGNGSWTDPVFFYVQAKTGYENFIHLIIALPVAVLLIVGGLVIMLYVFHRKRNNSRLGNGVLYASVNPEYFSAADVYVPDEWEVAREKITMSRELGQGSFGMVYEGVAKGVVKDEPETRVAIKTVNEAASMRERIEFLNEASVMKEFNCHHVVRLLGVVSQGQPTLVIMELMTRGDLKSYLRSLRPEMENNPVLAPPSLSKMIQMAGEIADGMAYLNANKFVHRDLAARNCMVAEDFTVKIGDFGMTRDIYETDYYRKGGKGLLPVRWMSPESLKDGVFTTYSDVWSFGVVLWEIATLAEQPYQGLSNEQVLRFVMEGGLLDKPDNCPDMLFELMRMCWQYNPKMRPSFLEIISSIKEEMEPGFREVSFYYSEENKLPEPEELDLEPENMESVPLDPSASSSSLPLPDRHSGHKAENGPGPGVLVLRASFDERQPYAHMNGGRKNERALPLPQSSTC
T7 sequence (P06241 whole entry, species assumed, the tested form may be a part): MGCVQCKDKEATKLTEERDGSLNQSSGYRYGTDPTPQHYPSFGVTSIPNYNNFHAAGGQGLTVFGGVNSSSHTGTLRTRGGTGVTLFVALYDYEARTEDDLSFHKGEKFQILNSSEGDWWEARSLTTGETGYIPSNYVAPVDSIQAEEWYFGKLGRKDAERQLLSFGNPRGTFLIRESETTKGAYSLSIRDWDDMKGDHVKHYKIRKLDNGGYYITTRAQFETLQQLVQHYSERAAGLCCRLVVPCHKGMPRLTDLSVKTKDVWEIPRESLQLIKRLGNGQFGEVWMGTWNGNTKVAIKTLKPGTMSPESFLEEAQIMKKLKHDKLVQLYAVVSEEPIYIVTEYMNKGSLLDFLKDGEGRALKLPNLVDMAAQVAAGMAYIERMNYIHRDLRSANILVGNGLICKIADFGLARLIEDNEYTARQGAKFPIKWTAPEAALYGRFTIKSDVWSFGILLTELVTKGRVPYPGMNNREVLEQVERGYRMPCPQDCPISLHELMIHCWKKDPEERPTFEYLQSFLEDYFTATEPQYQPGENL

IC50 (Lyn)	IC50 (Hck-1)	IC50 (Flt-1)	IC50 (ErbB4)	IC50 (Kdr)	IC50 (AKT)	IC50 (Fyn)	IC50 (FGFR1)	IC50 (PDGFRB)	IC50 (Itk)	IC50 (IGFR-1)	IC50 (Lck)	IC50 (Zap-70)	IC50 (c-Met)	SMILES
1.13 to 6.79 µM	> 12.7 µM	< 1.13 µM	1.13 to 6.79 µM	< 1.13 µM	> 12.7 µM	< 1.13 µM	1.13 to 6.79 µM	< 1.13 µM	9.9 to 12.7 µM	6.79 to 9.9 µM	1.13 to 6.79 µM	> 12.7 µM	> 12.7 µM	COc1ccc(Nc2ncnc(Nc3ccc(C)c(O)c3)n2)cc1OC [Compound 119]
< 0.977 µM	0.977 to 5.86 µM	< 0.977 µM	0.977 to 5.86 µM	< 0.977 µM	8.55 to 11 µM	< 0.977 µM	< 0.977 µM	< 0.977 µM	0.977 to 5.86 µM	< 0.977 µM	0.977 to 5.86 µM	> 11 µM	< 0.977 µM	COc1cc(Nc2ncnc(Nc3cc(-c4ccco4)n[nH]3)n2)cc(OC)c1OC [Compound 308]
< 1.36 µM	11.9 to 15.3 µM	< 1.36 µM	8.18 to 11.9 µM	1.36 to 8.18 µM	1.36 to 8.18 µM	< 1.36 µM	1.36 to 8.18 µM	1.36 to 8.18 µM	1.36 to 8.18 µM	1.36 to 8.18 µM	1.36 to 8.18 µM	> 15.3 µM	8.18 to 11.9 µM	Cc1cccc(Nc2ncnc(Nc3ccc(O)cc3)n2)c1 [Compound 107]
1.05 to 6.33 µM	> 11.9 µM	< 1.05 µM	1.05 to 6.33 µM	< 1.05 µM	> 11.9 µM	1.05 to 6.33 µM	< 1.05 µM	1.05 to 6.33 µM	1.05 to 6.33 µM	< 1.05 µM	1.05 to 6.33 µM	> 11.9 µM	< 1.05 µM	COc1ccc(Nc2ncnc(Nc3cc(-c4ccco4)n[nH]3)n2)cc1OC [Compound 337]
1.1 to 6.62 µM	6.62 to 9.66 µM	< 1.1 µM	1.1 to 6.62 µM	< 1.1 µM	> 12.4 µM	1.1 to 6.62 µM	< 1.1 µM	1.1 to 6.62 µM	1.1 to 6.62 µM	1.1 to 6.62 µM	1.1 to 6.62 µM	> 12.4 µM	1.1 to 6.62 µM	NC(=O)c1cccc(Nc2ncnc(Nc3cc(-c4ccco4)n[nH]3)n2)c1 [Compound 342]
5.59 to 8.15 µM	> 10.5 µM	5.59 to 8.15 µM	5.59 to 8.15 µM	5.59 to 8.15 µM	> 10.5 µM	5.59 to 8.15 µM	0.931 to 5.59 µM	8.15 to 10.5 µM	> 10.5 µM	> 10.5 µM	8.15 to 10.5 µM	> 10.5 µM	8.15 to 10.5 µM	COc1cc(Nc2ncnc(Nc3ccc(OCc4ccccc4)cc3)n2)cc(OC)c1 [Compound 156]
< 1 µM	6.01 to 8.76 µM	1 to 6.01 µM	1 to 6.01 µM	< 1 µM	> 11.3 µM	1 to 6.01 µM	6.01 to 8.76 µM	1 to 6.01 µM	1 to 6.01 µM	> 11.3 µM	< 1 µM	> 11.3 µM	1 to 6.01 µM	COc1cc(Nc2ncnc(N3CCCC4CCCCC43)n2)cc(OC)c1OC (stereo not drawn) [Compound 314]
> 11.9 µM	> 11.9 µM	1.06 to 6.36 µM	> 11.9 µM	< 1.06 µM	> 11.9 µM	> 11.9 µM	> 11.9 µM	< 1.06 µM	> 11.9 µM	1.06 to 6.36 µM	6.36 to 9.27 µM	> 11.9 µM	9.27 to 11.9 µM	COc1cc(Nc2ncnc(-n3ccc4ccccc43)n2)cc(OC)c1OC [Compound 185]
< 1.26 µM	7.59 to 11.1 µM	< 1.26 µM	1.26 to 7.59 µM	< 1.26 µM	> 14.2 µM	< 1.26 µM	< 1.26 µM	< 1.26 µM	7.59 to 11.1 µM	1.26 to 7.59 µM	1.26 to 7.59 µM	> 14.2 µM	11.1 to 14.2 µM	Cc1cccc(Nc2ncnc(Nc3ccc4[nH]ccc4c3)n2)c1 [Compound 110]
> 10.8 µM	> 10.8 µM	> 10.8 µM	0.958 to 5.75 µM	< 0.958 µM	> 10.8 µM	> 10.8 µM	> 10.8 µM	0.958 to 5.75 µM	> 10.8 µM	> 10.8 µM	8.38 to 10.8 µM	8.38 to 10.8 µM	8.38 to 10.8 µM	COC(=O)c1sccc1Nc1ncnc(Nc2cc(OC)c(OC)c(OC)c2)n1 [Compound 315]
< 0.869 µM	5.21 to 7.6 µM	0.869 to 5.21 µM	0.869 to 5.21 µM	< 0.869 µM	> 9.77 µM	< 0.869 µM	0.869 to 5.21 µM	< 0.869 µM	> 9.77 µM	5.21 to 7.6 µM	0.869 to 5.21 µM	> 9.77 µM	7.6 to 9.77 µM	COc1cc(Nc2ncnc(Nc3ccc(C)c(NS(C)(=O)=O)c3)n2)cc(OC)c1OC [Compound 305]
> 10.3 µM	> 10.3 µM	0.919 to 5.51 µM	> 10.3 µM	0.919 to 5.51 µM	5.51 to 8.04 µM	> 10.3 µM	0.919 to 5.51 µM	0.919 to 5.51 µM	0.919 to 5.51 µM	< 0.919 µM	8.04 to 10.3 µM	> 10.3 µM	> 10.3 µM	COc1cc(Nc2ncnc(-n3c(NC(C)=O)nc4ccccc43)n2)cc(OC)c1OC [Compound 334]
< 1.26 µM	1.26 to 7.56 µM	1.26 to 7.56 µM	1.26 to 7.56 µM	1.26 to 7.56 µM	7.56 to 11 µM	1.26 to 7.56 µM	1.26 to 7.56 µM	< 1.26 µM	7.56 to 11 µM	< 1.26 µM	11 to 14.2 µM	11 to 14.2 µM	7.56 to 11 µM	Cc1cccc(Nc2ncnc(Nc3ccc4[nH]ncc4c3)n2)c1 [Compound 120]
< 1.08 µM	6.46 to 9.42 µM	1.08 to 6.46 µM	< 1.08 µM	< 1.08 µM	> 12.1 µM	< 1.08 µM	1.08 to 6.46 µM	< 1.08 µM	9.42 to 12.1 µM	< 1.08 µM	< 1.08 µM	> 12.1 µM	1.08 to 6.46 µM	COc1cc(Nc2ncnc(Nc3cccc(F)c3)n2)cc(OC)c1OC [Compound 304]
< 0.888 µM	> 9.99 µM	0.888 to 5.33 µM	> 9.99 µM	< 0.888 µM	> 9.99 µM	0.888 to 5.33 µM	5.33 to 7.77 µM	0.888 to 5.33 µM	7.77 to 9.99 µM	0.888 to 5.33 µM	5.33 to 7.77 µM	> 9.99 µM	5.33 to 7.77 µM	COc1cc(Nc2ncnc(Nc3ccc(Br)cc3F)n2)cc(OC)c1OC [Compound 41]

Source: patent publication US7074789B2, “Kinase inhibitors” (Amgen Inc., priority 1999, dated 2006)
